# How the values were obtained:
# Format in all cases: functional
# [1] = test system: Mycobacterium tuberculosis; test: Antitubercular activity against extensively drug resistant Mycobacterium tuberculosis clinical isolate 11 by resazurin microtitre assay
# [2] = test system: Mycobacterium tuberculosis; test: Antitubercular activity against extensively drug resistant Mycobacterium tuberculosis clinical isolate 5 by resazurin microtitre assay
# [3] = test system: Mycobacterium tuberculosis; test: Antitubercular activity against multidrug resistant Mycobacterium tuberculosis clinical isolate 8 by resazurin microtitre assay
# [4] = test system: Mycobacterium tuberculosis; test: Antitubercular activity against multidrug resistant Mycobacterium tuberculosis clinical isolate 7 by resazurin microtitre assay
# [5] = test system: Mycobacterium tuberculosis; test: Antitubercular activity against multidrug resistant Mycobacterium tuberculosis clinical isolate 3 by resazurin microtitre assay
# [6] = test system: Mycobacterium tuberculosis; test: Antitubercular activity against extensively drug resistant Mycobacterium tuberculosis clinical isolate 1 by resazurin microtitre assay
# [7] = test system: Mycobacterium tuberculosis; test: Antitubercular activity against multidrug resistant Mycobacterium tuberculosis clinical isolate 9 by resazurin microtitre assay
# [8] = test system: Mycobacterium tuberculosis; test: Antitubercular activity against extensively drug resistant Mycobacterium tuberculosis clinical isolate 10 by resazurin microtitre assay
# [9] = test system: Mycobacterium tuberculosis; test: Antitubercular activity against extensively drug resistant Mycobacterium tuberculosis clinical isolate 8 by resazurin microtitre assay
# [10] = test system: Mycobacterium tuberculosis; test: Antitubercular activity against extensively drug resistant Mycobacterium tuberculosis clinical isolate 7 by resazurin microtitre assay
# [11] = test system: Mycobacterium tuberculosis; test: Antitubercular activity against extensively drug resistant Mycobacterium tuberculosis KMRC 0 0203-0 0197 by resazurin microtitre assay
# [12] = test system: Mycobacterium tuberculosis; test: Antitubercular activity against multidrug resistant Mycobacterium tuberculosis clinical isolate 1 by resazurin microtitre assay
# [13] = test system: Mycobacterium tuberculosis; test: Antitubercular activity against extensively drug resistant Mycobacterium tuberculosis clinical isolate 9 by resazurin microtitre assay
# [14] = test system: Mycobacterium tuberculosis; test: Antitubercular activity against multidrug resistant Mycobacterium tuberculosis clinical isolate 10 by resazurin microtitre assay
# [15] = test system: Mycobacterium tuberculosis; test: Antitubercular activity against multidrug resistant Mycobacterium tuberculosis clinical isolate 11 by resazurin microtitre assay
# [16] = test system: Mycobacterium tuberculosis; test: Antitubercular activity against extensively drug resistant Mycobacterium tuberculosis clinical isolate 6 by resazurin microtitre assay
# [17] = test system: Mycobacterium tuberculosis; test: Antitubercular activity against multidrug resistant Mycobacterium tuberculosis clinical isolate 4 by resazurin microtitre assay
# [18] = test system: Mycobacterium tuberculosis; test: Antitubercular activity against multidrug resistant Mycobacterium tuberculosis clinical isolate 5 by resazurin microtitre assay
# [19] = test system: Mycobacterium tuberculosis; test: Antitubercular activity against extensively drug resistant Mycobacterium tuberculosis clinical isolate 4 by resazurin microtitre assay
# [20] = test system: Mycobacterium tuberculosis; test: Antitubercular activity against multidrug resistant Mycobacterium tuberculosis clinical isolate 6 by resazurin microtitre assay
# [21] = test system: Mycobacterium tuberculosis; test: Antitubercular activity against extensively drug resistant Mycobacterium tuberculosis clinical isolate 3 by resazurin microtitre assay
# [22] = test system: Mycobacterium tuberculosis; test: Antitubercular activity against extensively drug resistant Mycobacterium tuberculosis clinical isolate 2 by resazurin microtitre assay
# [23] = test system: Mycobacterium tuberculosis; test: Antitubercular activity against multidrug resistant Mycobacterium tuberculosis clinical isolate 2 by resazurin microtitre assay
# [24] = test system: Mycobacterium tuberculosis; test: Antimycobacterial activity against Mycobacterium tuberculosis clinical isolate 152-0 harboring wild type gyrA and wild type gyrB
# [25] = test system: Mycobacterium tuberculosis; test: Antimycobacterial activity against Mycobacterium tuberculosis clinical isolate 775-0 harboring gyrA QRDR c270t (A90V) mutant and wild type gyrB
# [26] = test system: Mycobacterium tuberculosis; test: Antimycobacterial activity against Mycobacterium tuberculosis clinical isolate 581-17 harboring gyrA QRDR c270t (A90V) mutant and wild type gyrB
# [27] = test system: Mycobacterium tuberculosis; test: Antimycobacterial activity against Mycobacterium tuberculosis clinical isolate 124-0 harboring wild type gyrA and wild type gyrB
# [28] = test system: Mycobacterium tuberculosis; test: Antimycobacterial activity against Mycobacterium tuberculosis clinical isolate 383-0 harboring wild type gyrA and wild type gyrB
# [29] = test system: Mycobacterium tuberculosis; test: Antimycobacterial activity against Mycobacterium tuberculosis clinical isolate 410-11 harboring wild type and wild type gyrB
# [30] = test system: Mycobacterium tuberculosis; test: Antimycobacterial activity against Mycobacterium tuberculosis H37Rv harboring wild type gyrA and wild type gyrB
# [31] = test system: Mycobacterium tuberculosis; test: Antimycobacterial activity against Mycobacterium tuberculosis clinical isolate 199-00 harboring gyrA QRDR c270t (A90V) mutant and wild type gyrB
# [32] = test system: Mycobacterium tuberculosis; test: Antimycobacterial activity against Mycobacterium tuberculosis clinical isolate 742-0 harboring gyrA QRDR a282g (D94G) mutant and wild type gyrB
# [33] = test system: Mycobacterium tuberculosis; test: Antimycobacterial activity against Mycobacterium tuberculosis clinical isolate 427-18 harboring gyrA QRDR c270t (A90V) mutant and wild type gyrB
# [34] = test system: Mycobacterium tuberculosis; test: Antimycobacterial activity against Mycobacterium tuberculosis clinical isolate 666-0 harboring wild type gyrA and wild type gyrB
# [35] = test system: Mycobacterium tuberculosis; test: Antimycobacterial activity against isoniazid, rifampicin, ethambutol, pyrazinamide, capreomycin, and ethionamide resistant Mycobacterium tuberculosis clinical isolate incubated for 7 days by resazurin microtitre assay; conditions: 168 h, time 7 day
# [36] = test system: Mycobacterium tuberculosis; test: Antimycobacterial activity against isoniazid, rifampicin, ethambutol, pyrazinamide, streptomycin, capreomycin, amikacin, kanamycin, ofloxacin, and ethionamide resistant Mycobacterium tuberculosis clinical isolate incubated for 7 days by resazurin microtitre assay; conditions: 168 h, time 7 day
# [37] = test system: Mycobacterium tuberculosis; test: Antimycobacterial activity against isoniazid resistant Mycobacterium tuberculosis clinical isolate incubated for 7 days by resazurin microtitre assay; conditions: 168 h, time 7 day
structure (smiles),measurement,setting,value
CC[C@@H](CO)NCCN[C@@H](CC)CO [ETHAMBUTOL],MIC,[1],6.25 µg/mL
same,MIC,[2],6.25 µg/mL
same,MIC,[3],6.25 µg/mL
same,MIC,[4],6.25 µg/mL
same,MIC,[5],3.13 µg/mL
same,MIC,[6],6.25 µg/mL
same,MIC,[7],3.13 µg/mL
same,MIC,[8],6.25 µg/mL
same,MIC,[9],6.25 µg/mL
same,MIC,[10],12.5 µg/mL
same,MIC,[11],6.25 µg/mL
same,MIC,[12],6.25 µg/mL
same,MIC,[13],6.25 µg/mL
same,MIC,[14],0.78 µg/mL
same,MIC,[15],6.25 µg/mL
same,MIC,[16],6.25 µg/mL
same,MIC,[17],6.25 µg/mL
same,MIC,[18],6.25 µg/mL
same,MIC,[19],6.25 µg/mL
same,MIC,[20],6.25 µg/mL
same,MIC,[21],6.25 µg/mL
same,MIC,[22],6.25 µg/mL
same,MIC,[23],6.25 µg/mL
CC(C)(C)n1cc(C(=O)O)c(=O)c2cc(F)c(-c3ccc(O)cc3)cc21,MIC,[24],2 µg/mL
same,MIC,[25],2 µg/mL
same,MIC,[26],8 µg/mL
same,MIC,[27],1 µg/mL
same,MIC,[28],2 µg/mL
same,MIC,[29],2 µg/mL
same,MIC,[30],1 µg/mL
same,MIC,[31],2 µg/mL
same,MIC,[32],2 µg/mL
same,MIC,[33],1 µg/mL
same,MIC,[34],2 µg/mL
CC(=O)N1/C(=C/c2ccc(-c3ccccc3)cc2)C(=O)c2ccccc21,MIC,[35],12.3 µM
same,MIC,[36],12.3 µM
same,MIC,[37],12.3 µM
CC(=O)N1/C(=C/c2ccc(-c3ccc(C)cc3)cc2)C(=O)c2ccccc21,MIC,[35],17.7 µM
same,MIC,[36],17.7 µM
same,MIC,[37],17.7 µM
CC(=O)N1/C(=C/c2ccc(-c3ccc(Cl)cc3)cc2)C(=O)c2ccccc21,MIC,[35],10.4 µM
same,MIC,[36],8.37 µM
same,MIC,[37],8.37 µM
